We go through 14 molecules from US20050238634A1, “Method, compositions and kits for increasing the oral bioavailability of pharmaceutical agents” (Baker Norton Pharmaceuticals, Inc., priority 1995, published 2005).

Read-outs that look alike come from different tables or passages of the source.

For data set [1] the following is noted: male, Sprague-Dawley, rat, in vivo.
Data set [2] in a line: 3H-etoposide IV, oral, oral with cyclosporin in rats, whole blood radioactivity (Example 6, NP960102). The class given is in vivo.
For data set [3] the following is noted: etoposide capsules; cited from earlier work.
The conditions of data set [4]: reports in the literature; cited from earlier work.
Test in data set [5]: not given
This is another data set of the same source.

The conditions of data set [6]: Sprague Dawley, rat, in vivo.
The conditions of data set [7]: Sprague Dawley, rat, in vivo. The source holds these as a separate data set.
For data set [8], the system named is metastatic breast cancer. As to conditions: continuous 96-hour infusion every three weeks; taxane-failure patients; cited from earlier work.
A short description of data set [9]: Repeated oral co-administration of paclitaxel with CsA, plasma levels. To be noted: repeated regimen. The class given is in vivo, rats.
Test in data set [10]: not given
This is another data set of the same source.

The conditions of data set [11]: oral; cited from earlier work.
Data set [12] can be described thus: in vivo. To be noted: Sprague Dawley, rat.
Where [13] appears, read: radioactivity of oral 3H-paclitaxel 9 mg/kg, cyclosporin dose 2 × 5 mg/kg oral.
The mark [14] stands for this setting: oral 3H-paclitaxel 9 mg/kg, cyclosporin dose 2 × 5 mg/kg oral.
Setting [15] is: Grp C, etoposide 1/PO with CsA 5/PO before and with.
[16] abbreviates: Sprague Dawley, rat, in vivo, po.
Setting [17] is: Sprague Dawley, rat, in vivo, po, 9 mg/kg.
Setting [18] is: total radioactivity, Paclitaxel IV 9 mg/kg.

With `CCCC[C@@H](C)[C@@H](O)[C@H]1C(=O)N[C@@H](CC)C(=O)N(C)CC(=O)N(C)[C@@H](CC(C)C)C(=O)N[C@@H](C(C)C)C(=O)N(C)[C@@H](CC(C)C)C(=O)N[C@@H](C)C(=O)N[C@H](C)C(=O)N(C)[C@@H](CC(C)C)C(=O)N(C)[C@@H](CC(C)C)C(=O)N(C)[C@@H](C(C)C)C(=O)N1C` [Cyclosporin Dihydro A, dihydro cyclosporin A], the AUC0-24 under setting [13] is listed as 8.5 μg eq. hr/ml.
Consider `CC(=O)N1CCN(c2ccc(OCC3COC(Cn4ccnc4)(c4ccc(Cl)cc4Cl)O3)cc2)CC1` (centres unmarked) [Ketoconazole, ketoconazole], for which the t½ (as a rule, how long it takes for the measured level to halve) in data set [1] turned out to be 9.23 h.
Turning to `C/C=C/C[C@@H](C)[C@@H](O)[C@H]1C(=O)N[C@@H](CCC)C(=O)N(C)CC(=O)N(C)[C@@H](CC(C)C)C(=O)N[C@@H](C(C)C)C(=O)N(C)[C@@H](CC(C)C)C(=O)N[C@@H](C)C(=O)N[C@H](C)C(=O)N(C)[C@@H](CC(C)C)C(=O)N(C)[C@@H](CC(C)C)C(=O)N(C)[C@@H](C(C)C)C(=O)N1C` [Cyclosporin G, cyclosporin G], the “% Absorption” value under setting [14] was found to be 40.0%. In addition, the AUC0-24 under setting [13] came to 13.22 μg eq. hr/ml.
For `OCCN(CCO)c1nc(N2CCCCC2)c2nc(N(CCO)CCO)nc(N3CCCCC3)c2n1` [Dipyridamole, dipyridamole], the t½ in data set [1] amounted to 26.6 h.
For `COc1cc([C@@H]2c3cc4c(cc3[C@@H](O[C@@H]3O[C@@H]5CO[C@@H](C)O[C@H]5[C@H](O)[C@H]3O)[C@H]3COC(=O)[C@H]23)OCO4)cc(OC)c1O` [Etoposide, etoposide], the Cmax in data set [2] (Grp A, etoposide only 1/IV) turned out to be 2.16 ug*eq/mL; in data set [2] (Grp B, etoposide only 1/PO) it was 0.03 ug*eq/mL; in [2] (setting [15]), 0.12 ug*eq/mL. Besides, the t½ in [2] (Grp A, etoposide only 1/IV) turned out to be 26.5 h; in data set [2] (Grp B, etoposide only 1/PO), 19.1 h; in data set [2] (setting [15]), 18.1 h. Also, the AUC0-24 in data set [2] (Grp A, etoposide only 1/IV, total radioactivity) came to 1080 ng·h/mL; in [2] (Grp B, etoposide only 1/PO) it was 610 ng·h/mL; in data set [2] (setting [15]), 1040 ng·h/mL. In addition, the F % in data set [2] (Grp B, etoposide only 1/PO) is 56.5%; in data set [2] (setting [15]), 96.3%; in data set [2] (Grp C, etoposide 1/PO with CsA 5/PO before and with, listed as etoposide) it was “about 96%”. Further, in data set [3], the “mean value of oral bioavailability” value is given as “approximately 50%”.
The molecule `CC(=O)[C@H]1CC[C@H]2[C@@H]3CCC4=CC(=O)CC[C@]4(C)[C@H]3CC[C@]12C` [Progesterone, progesterone] showed a t½ in data set [1] of 20.0 h.
In the case of `C/C=C/C[C@@H](C)[C@@H](O)[C@H]1C(=O)N[C@@H](C(C)C)C(=O)N(C)CC(=O)N(C)[C@@H](CC(C)C)C(=O)N[C@@H](C(C)C)C(=O)N(C)[C@@H](CC(C)C)C(=O)N[C@@H](C)C(=O)N[C@H](C)C(=O)N(C)[C@@H](CC(C)C)C(=O)N(C)[C@@H](CC(C)C)C(=O)N(C)[C@@H](C(C)C)C(=O)N1C` [Cyclosporin D, cyclosporin D], the immunosuppressive activity result in [4] is listed as “least immunosuppressive activity”.
For “dihydro cyclosporin C [Cyclosporin Dihydro C]”, under setting [14], the “% Absorption” value worked out at 45.1%. Besides, under setting [13], the AUC0-24 is recorded as 13.09 μg eq. hr/ml.
For `C/C=C/C[C@@H](C)[C@@H](OC(C)=O)[C@H]1C(=O)N[C@@H](CC)C(=O)N(C)CC(=O)N(C)[C@@H](CC(C)C)C(=O)N[C@@H](C(C)C)C(=O)N(C)[C@@H](CC(C)C)C(=O)N[C@@H](C)C(=O)N[C@H](C)C(=O)N(C)[C@@H](CC(C)C)C(=O)N(C)[C@@H](CC(C)C)C(=O)N(C)[C@@H](C(C)C)C(=O)N1C` [Cyclosporin Acetyl A, acetyl cyclosporin A] the same measures were 25.4% and 8.39 μg eq. hr/ml.
Molecule `CC(=O)O[C@]1(C(C)=O)CC[C@H]2[C@@H]3C=C(C)C4=CC(=O)CC[C@]4(C)[C@H]3CC[C@@]21C` [Magace, megestrol acetate] had a t½ in data set [1] of 23.1 h.
`CC(=O)O[C@H]1C(=O)[C@@]2(C)[C@H]([C@H](OC(=O)c3ccccc3)[C@]3(O)C[C@H](OC(=O)[C@H](O)[C@@H](NC(=O)c4ccccc4)c4ccccc4)C(C)=C1C3(C)C)[C@]1(OC(C)=O)CO[C@@H]1C[C@@H]2O` [Paclitaxel, paclitaxel] registered an AUC0-24 in [5] (NP951001, paclitaxel only 9/IV) of 32.04 µg·h/mL. Also, the AUC0-24 in [5] (NP951001, paclitaxel only 9/PO) worked out at 3.24 µg·h/mL. The “% Dose in urine (4-24 hr)” value in [5] (Sprague Dawley, rat, in vivo, iv) is recorded as 2.2%. In data set [5] (setting [16]), the “% Dose in urine (4-24 hr)” value is on record as 1.9%; the AUC0-24 amounted to 3.2 μg eq × hr/ml; the time to peak (Tmax) (in general, the time from dosing to the highest level) came to 25 h. In data set [5] (total radioactivity in blood, IV (A)), the AUC0-24 was found to be 32.8 μg eq × hr/ml. For the same molecule, the V in [6] (iv) is 4.236 L/kg. Moreover, in [6] (po), the “AUC0-[…]” value came out at 349 ng·h/mL, the “F %” value was found to be 1.7% and the V was 5.029 L/kg. The “Absolute F” value in data set [7] is on record as 0.9%. For the same molecule, the response rate in data set [8] was 27%. Also, the “steady state plasma levels of paclitaxel achieved” value in data set [9] was “by the third day”. In data set [10] (setting [16]), the “F (%) Based on AUC0-00” value was 16.4% and the “F (%) based on AUC0-24 hr” value was determined as 5.9%. In data set [10] (setting [17]), this molecule came in with an AUC0-00 of 4.5 μg equiv. hr/mL and an AUC0-24 hr of 1.4 μg equiv. hr/mL. In data set [10] (setting [18]), the AUC0-00 came to 27.4 μg equiv. hr/mL and the AUC0-24 hr was 23.8 μg equiv. hr/mL. In addition, the “absorbed when administered orally” value in [11] is “less than 1%”. Moreover, in data set [12] (in vivo, po), the bioavailability (commonly dose-corrected exposure relative to a reference, in per cent) is less than 1%. Also, the AUC(0-t) (usually exposure summed from dosing to a finite time, without extrapolation to infinity) in data set [12] (serum, oral, 9 mg/kg) was found to be 80 ng·h/mL.
Turning to `C/C=C/C[C@@H](C)C[C@H]1C(=O)N[C@@H](CC)C(=O)N(C)CC(=O)N(C)[C@@H](CC(C)C)C(=O)N[C@@H](C(C)C)C(=O)N(C)[C@@H](CC(C)C)C(=O)N[C@@H](C)C(=O)N[C@H](C)C(=O)N(C)[C@@H](CC(C)C)C(=O)N(C)[C@@H](CC(C)C)C(=O)N(C)[C@@H](C(C)C)C(=O)N1C` [Cyclosporin F, cyclosporin F], the AUC0-24 is listed as 11.99 μg eq. hr/ml (oral 3H-paclitaxel 9 mg/kg, cyclosporin dose 2 × 10 mg/kg oral) and 8.99 μg eq. hr/ml under setting [13]. The “activity in promoting oral absorption of paclitaxel” value (whole blood radioactivity profiles, 5 mg/kg oral before and with paclitaxel 9 mg/kg) was “enhances the oral bioavailability of paclitaxel”. For the same molecule, in [4], the immunosuppressive activity result is listed as “does not display immunosuppressive activity”.
Regarding `C/C=C/C[C@@H](C)[C@@H](O)[C@H]1C(=O)N[C@@H](CC)C(=O)N(C)CC(=O)N(C)[C@@H](CC(C)C)C(=O)N[C@@H](C(C)C)C(=O)N[C@@H](CC(C)C)C(=O)N[C@@H](C)C(=O)N[C@H](C)C(=O)N(C)[C@@H](CC(C)C)C(=O)N(C)[C@@H](CC(C)C)C(=O)N(C)[C@@H](C(C)C)C(=O)N1C` [Cyclosporin U, cyclosporin U], under setting [14], the “% Absorption” value turned out to be 15.2%. Moreover, the AUC0-24 under setting [13] is reported as 5.02 μg eq. hr/ml.
In the same order, the values of `C/C=C/C[C@@H](C)[C@@H](O)[C@H]1C(=O)N[C@@H]([C@@H](C)O)C(=O)N(C)CC(=O)N(C)[C@@H](CC(C)C)C(=O)N[C@@H](C(C)C)C(=O)N(C)[C@@H](CC(C)C)C(=O)N[C@@H](C)C(=O)N[C@H](C)C(=O)N(C)[C@@H](CC(C)C)C(=O)N(C)[C@@H](CC(C)C)C(=O)N(C)[C@@H](C(C)C)C(=O)N1C` [Cyclosporin C, cyclosporin C] are 34.5% and 11.39 μg eq. hr/ml.
